Experimental data published in patent publication EP4759816A1, “UREA-CONTAINING […] ß-LACTAMASE INHIBITOR, PREPARATION METHOD THEREFOR AND USE THEREOF” (priority 2023, dated 2025).
Read-outs that look alike come from different tables or passages of the source.

Columns and labels:
KPC-2 = KPC-2 (Klebsiella pneumoniae, UniProt Q9F663); experiment: β-Lactamase inhibitory activity test, nitrocefin substrate; format: biochemical
Experimental: (§1) The IC50 of β-lactamase inhibitors against β-lactamases was tested using nitrocefin as the substrate. The enzyme and serially diluted β-lactamase inhibitor were incubated in 50 mM phosphate buffer (containing 0.1 mg/mL bovine serum albumin) at 37°C for 10 minutes. The reaction was initiated by adding 100 µM nitrocefin, and the reaction temperature was set to 37°C. The absorbance at 490 nm was recorded every minute for a total of 1 hour. The initial reaction rate was calculated, and the IC50 was calculated using GraphPad Prism software. Table 4. Inhibitory activity (IC50, mg/L) of compounds against β-lactamases

OXA-10 = OXA-10 (Pseudomonas aeruginosa, UniProt P14489); experiment: as above; format: biochemical
Experimental: as §1

OXA-23 = OXA-23 (Acinetobacter baumannii, UniProt Q9L4P2); experiment: as above; format: biochemical
Experimental: as §1

TEM-1 = TEM-1 (Escherichia coli, UniProt P62593); experiment: as above; format: biochemical
Experimental: as §1

E. Coli NCTC 13353 = experiment: MIC by broth microdilution, β-lactam antibiotic combined with β-lactamase inhibitor; format: cell-based; conditions: Escherichia coli, NCTC13353; E. Coli NCTC 13353, expresses CTX-M-15; MIC of the antibiotic, inhibitor fixed at 4 mg/L; read-out: Antibacterial Activity (MIC50)
Experimental: (§2) The minimum inhibitory concentration (MIC) of the Example compounds (at a concentration of 4 mg/L) in combination with β-lactam antibiotics (ceftazidime, cefepime, meropenem, imipenem, aztreonam) against bacterial strains was tested using the broth microdilution method recommended by the Clinical and Laboratory Standards Institute (CLSI, formerly NCCLs) [Methods for Dilution Antimicrobial Susceptibility Tests for Bacteria That Grow Aerobically; Approved Standard-tenth Edition M07-A10, 2015]. The specific test materials and procedures are as follows.
(§3) The standard strains used in this experiment were purchased ATCC strains. The clinical strains used were strains resistant to some or all marketed β-lactam antibiotics, isolated and identified by domestic public hospitals, and the types of β-lactamases they express were determined. Before the experiment, each bacterial strain was purified by streaking single colonies on an agar plate, and fresh bacterial cultures grown overnight at 37°C were appropriately diluted for the experiment.
(§4) CAMHB (Cation Adjusted Mueller-Hinton) medium, incubated at 35-37°C in air for 16-20 h.
(§5) CAMHB Formula: Acid-hydrolyzed casein (17.5 g/L), beef extract (3.0 g/L), soluble starch (1.5 g/L), calcium ions (20-25 mg/L), magnesium ions (10-12.5 mg/L).
(§6) Stock solutions at 4 times the working concentration were prepared in CAMHB broth for the combinations of antibiotics (ceftazidime, cefepime, meropenem, aztreonam) and Example compounds. The final concentrations of antibiotics in the stock solutions were 256, 128, 64, 32, 16, 8, 4, 2, 1, 0.5, 0.25, 0.125 mg/L, respectively. The final concentration of avibactam, relebactam, or Example compounds was 4 mg/L.
(§7) Several colonies were picked from an 18-24 h cultured agar plate and suspended directly in sterile physiological saline to prepare a bacterial suspension. The turbidity of the suspension was adjusted to 0.5 McFarland standard. The adjusted bacterial suspension was diluted with CAMHB broth to (4-8) × 10^5 CFU/mL and used immediately.
(§8) Test Group: 50 µL of the antibiotic (ceftazidime, cefepime, meropenem, imipenem, aztreonam) stock solution and 50 µL of the β-lactamase inhibitor (avibactam, relebactam, or Example compound) stock solution were added to wells 1 to 12 of a sterile 96-well polystyrene plate. Then, 100 µL of CAMHB containing the test bacterial suspension was added to each well, making a total volume of 200 µL per well. The final drug concentrations in the wells were 64, 32, 16, 8, 4, 2, 1, 0.5, 0.25, 0.125, 0.06, 0.03 mg/L, respectively. […]
(§9) The inoculated 96-well polystyrene plates were sealed and placed in an incubator at 35-37°C for 16-20 h before reading the results. […]

E. coli ATCC 25922 = experiment: as above; format: cell-based; conditions: Escherichia coli, ATCC25922; E. coli ATCC 25922, β-lactamase expressed: -; MIC of the antibiotic, inhibitor fixed at 4 mg/L; read-out: Antibacterial Activity (MIC50)
Experimental: as §2, §3, §4, §5, §6, §7, §8, §9

E. coli ATCC 35218 = experiment: as above; format: cell-based; conditions: Escherichia coli, ATCC35218; E. coli ATCC 35218, expresses TEM-1; MIC of the antibiotic, inhibitor fixed at 4 mg/L; read-out: Antibacterial Activity (MIC50)
Experimental: as §2, §3, §4, §5, §6, §7, §8, §9

P. aeruginosa ATCC 27853 = experiment: as above; format: cell-based; conditions: Pseudomonas aeruginosa, ATCC27853; P. aeruginosa ATCC 27853, expresses AmpC; MIC of the antibiotic, inhibitor fixed at 4 mg/L; read-out: Antibacterial Activity (MIC50)
Experimental: as §2, §3, §4, §5, §6, §7, §8, §9

K.Pneumoniae BAA-1705 = experiment: as above; format: cell-based; conditions: Klebsiella pneumoniae, BAA1705; K.Pneumoniae BAA-1705, expresses KPC-2; MIC of the antibiotic, inhibitor fixed at 4 mg/L; read-out: Antibacterial Activity (MIC50)
Experimental: CAMHB (Cation Adjusted Mueller-Hinton) medium, incubated at 35-37°C in air for 16-20 h. […]

[1] = TEM-1, enzyme family A, 100 µM nitrocefin, 37°C, 10 minutes preincubation, read-out: Inhibitory activity (IC50)

Sequence of KPC-2 (Q9F663 25-293 limits assumed): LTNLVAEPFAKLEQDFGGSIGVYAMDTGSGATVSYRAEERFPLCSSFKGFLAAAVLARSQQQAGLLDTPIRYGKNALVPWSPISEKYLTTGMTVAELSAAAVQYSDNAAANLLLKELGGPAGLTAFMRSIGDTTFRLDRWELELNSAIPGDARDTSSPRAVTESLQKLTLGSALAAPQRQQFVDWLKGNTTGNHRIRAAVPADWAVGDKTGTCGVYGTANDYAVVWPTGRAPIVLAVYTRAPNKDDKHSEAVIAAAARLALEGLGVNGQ
Sequence of TEM-1 (P62593 24-286 limits assumed): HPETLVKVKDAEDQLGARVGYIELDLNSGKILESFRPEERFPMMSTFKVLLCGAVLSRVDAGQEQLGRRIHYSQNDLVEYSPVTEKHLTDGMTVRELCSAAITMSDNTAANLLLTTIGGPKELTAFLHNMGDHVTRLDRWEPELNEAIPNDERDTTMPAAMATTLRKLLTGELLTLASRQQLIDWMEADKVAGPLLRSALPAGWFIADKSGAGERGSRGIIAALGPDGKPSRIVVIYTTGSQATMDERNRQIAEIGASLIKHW
Sequence of OXA-23 (Q9L4P2 18-273): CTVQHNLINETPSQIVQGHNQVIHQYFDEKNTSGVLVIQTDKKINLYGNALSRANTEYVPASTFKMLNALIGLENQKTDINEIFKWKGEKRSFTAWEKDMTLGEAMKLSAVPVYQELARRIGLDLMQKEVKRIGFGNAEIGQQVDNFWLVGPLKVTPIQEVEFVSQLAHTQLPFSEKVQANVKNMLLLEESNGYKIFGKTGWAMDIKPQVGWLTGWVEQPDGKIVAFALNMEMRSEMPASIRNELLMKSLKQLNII
Sequence of OXA-10 (P14489 20-266): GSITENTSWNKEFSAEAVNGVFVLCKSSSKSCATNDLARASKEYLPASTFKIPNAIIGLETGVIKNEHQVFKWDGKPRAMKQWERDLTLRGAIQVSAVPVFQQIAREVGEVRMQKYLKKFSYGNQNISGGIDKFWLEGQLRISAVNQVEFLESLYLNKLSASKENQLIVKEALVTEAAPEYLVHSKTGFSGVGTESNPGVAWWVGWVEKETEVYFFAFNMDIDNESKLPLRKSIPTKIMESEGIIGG

Row | MIC50 (E. Coli NCTC 13353) [µg/mL] | MIC50 (E. coli ATCC 25922) [µg/mL] | MIC50 (E. coli ATCC 35218) [µg/mL] | MIC50 (P. aeruginosa ATCC 27853) [µg/mL] | MIC50 (K.Pneumoniae BAA-1705) [µg/mL] | SMILES | IC50 (KPC-2) [nM] | IC50 (OXA-10) [nM] | IC50 (OXA-23) [nM] | IC50 (TEM-1; [1]) [nM] | IC50 (TEM-1) [nM]
1 |  |  |  |  |  | CS(=O)(=O)n1ccc2c1CN1CC2N(OS(=O)(=O)O)C1=O (centres unmarked) [Example 2 Compound] | < 1000 | < 1000 | < 1000 | < 1000 | 
2 | > 10 | 0.1 to 1 | 0.1 to 1 | 1 to 10 | > 10 | CC(C)(O/N=C(\C(=O)N[C@@H]1C(=O)N2C(C(=O)[O-])=C(C[n+]3ccccc3)CS[C@H]12)c1csc(N)n1)C(=O)O [Ceftazidime] |  |  |  |  | 
3 |  |  |  |  |  | CS(=O)(=O)n1ccc2c1C(C(N)=O)N1CC2N(OS(=O)(=O)O)C1=O (centres unmarked) [Example 14 Compound] | < 1000 |  | 10000 to 100000 |  | < 1000
4 |  |  |  |  |  | O=C1N2Cc3c(ccn3S(=O)(=O)c3cccnc3)[C@H](C2)N1OS(=O)(=O)O [Example 10 Compound] | < 1000 |  | < 1000 |  | < 1000
5 |  |  |  |  |  | Cn1cc(S(=O)(=O)n2ccc3c2CN2C[C@@H]3N(OS(=O)(=O)O)C2=O)cn1 [Example 11 Compound] | < 1000 |  | 1000 to 10000 |  | < 1000
6 |  |  |  |  |  | CS(=O)(=O)n1ccc2c1CN1C[C@@H]2N(OS(=O)(=O)O)C1=O [Example 3 Compound] | < 1000 | < 1000 | < 1000 | < 1000 | 
7 |  |  |  |  |  | CCS(=O)(=O)n1ccc2c1CN1C[C@@H]2N(OS(=O)(=O)O)C1=O [Example 4 Compound] | < 1000 |  | 1000 to 10000 |  | < 1000
8 |  |  |  |  |  | NC(=O)C1c2c(ccn2S(=O)(=O)C2CC2)C2CN1C(=O)N2OS(=O)(=O)O (centres unmarked) [Example 15 Compound] | > 100000 |  | > 100000 |  | > 100000
9 |  |  |  |  |  | O=C1N2Cc3c(ccn3S(=O)(=O)c3ccccc3)C(C2)N1OS(=O)(=O)O (centres unmarked) [Example 1 Compound] | < 1000 | < 1000 | < 1000 | < 1000 | 
